Measurements from ChEMBL document CHEMBL1139938, “Syntheses and antibacterial activity of phendioxy substituted cyclic enediynes” (2007).
Values after ≈ are worked out from the molar mass of the structure shown. Active and inactive are the calls of the source. The rule behind the calls is not given here.

Legend:
Escherichia coli [1] = test: Antibacterial activity against Escherichia coli ATCC 25668; type: functional
Salmonella typhimurium [2] = test: Antibacterial activity against Salmonella Typhimurium isolate; type: functional, Salmonella enterica subsp. enterica serovar Typhimurium; conditions: Salmonella enterica
Pseudomonas aeruginosa [3] = test: Antibacterial activity against Pseudomonas aeruginosa ATCC 11775 upto 512 ug/mL; type: functional, organism-based
Staphylococcus aureus [4] = test: Antibacterial activity against Staphylococcus aureus isolate upto 512 ug/mL; type: functional, organism-based
Pseudomonas aeruginosa [5] = test: Antibacterial activity against Pseudomonas aeruginosa ATCC 11775; type: functional
Staphylococcus aureus [6] = test: Antibacterial activity against Staphylococcus aureus isolate; type: functional
Salmonella typhimurium [7] = test: Antibacterial activity against Salmonella Typhimurium isolate upto 512 ug/mL; type: functional, organism-based; conditions: Salmonella enterica subsp. enterica serovar Typhimurium
Escherichia coli [8] = test: Antibacterial activity against Escherichia coli ATCC 25668 upto 512 ug/mL; type: functional, organism-based

Q: Which MIC (Escherichia coli [1]) does the source give for `Clc1ccc(NCc2ccc3cc2OCC#C/C=C\C#CCO3)cc1` here?
A: 64 µg/mL (≈ 183 µM)

Q: What about the MIC (Salmonella typhimurium [2]) of the same compound?
A: 512 µg/mL (≈ 1460 µM)

Q: And the Activity (Pseudomonas aeruginosa [3])?
A: inactive

Q: What about the Activity (Staphylococcus aureus [4]) of the same compound?
A: inactive

Q: With `Cc1ccc(NCc2ccc3cc2OCC#C/C=C\C#CCO3)cc1` as the compound, how does the MIC (Pseudomonas aeruginosa [5]) read?
A: 32 µg/mL (≈ 97.1 µM)

Q: And the MIC (Escherichia coli [1])?
A: 4 µg/mL (≈ 12.1 µM)

Q: And the MIC (Staphylococcus aureus [6])?
A: 16 µg/mL (≈ 48.6 µM)

Q: And the MIC (Salmonella typhimurium [2])?
A: 128 µg/mL (≈ 389 µM)

Q: `C#CCOc1cccc(OCC#C)c1` was tested. Which MIC (Pseudomonas aeruginosa [5]) did it give?
A: > 1000 µg/mL

Q: And the MIC (Escherichia coli [1])?
A: > 1000 µg/mL

Q: What about the MIC (Staphylococcus aureus [6]) of the same compound?
A: > 1000 µg/mL

Q: What about the MIC (Salmonella typhimurium [2]) of the same compound?
A: > 1000 µg/mL

Q: For `C1#CCOc2ccc(CNc3ccccc3)c(c2)OCC#C/C=C\1`, which MIC (Pseudomonas aeruginosa [5]) is on record?
A: 16 µg/mL (≈ 50.7 µM)

Q: And the MIC (Escherichia coli [1])?
A: 4 µg/mL (≈ 12.7 µM)

Q: What about the MIC (Staphylococcus aureus [6]) of the same compound?
A: 8 µg/mL (≈ 25.4 µM)

Q: What about the MIC (Salmonella typhimurium [2]) of the same compound?
A: 16 µg/mL (≈ 50.7 µM)

Q: For `CN(C)[C@@H]1C(O)=C(C(N)=O)C(=O)[C@@]2(O)C(O)=C3C(=O)c4c(O)cccc4[C@@](C)(O)[C@H]3C[C@@H]12` [TETRACYCLINE], which MIC (Pseudomonas aeruginosa [5]) is on record?
A: 1 µg/mL (≈ 2.25 µM)

Q: And the MIC (Escherichia coli [1])?
A: 2 µg/mL (≈ 4.5 µM)

Q: And the MIC (Staphylococcus aureus [6])?
A: 2 µg/mL (≈ 4.5 µM)

Q: What about the MIC (Salmonella typhimurium [2]) of the same compound?
A: 0.5 µg/mL (≈ 1.13 µM)

Q: For `Brc1ccc(NCc2ccc3cc2OCC#C/C=C\C#CCO3)cc1`, which MIC (Escherichia coli [1]) is on record?
A: 128 µg/mL (≈ 325 µM)

Q: And the Activity (Pseudomonas aeruginosa [3])?
A: inactive

Q: And the Activity (Staphylococcus aureus [4])?
A: inactive

Q: And the Activity (Salmonella typhimurium [7])?
A: inactive

Q: For `OCc1ccc2cc1OCC#C/C=C\C#CCO2`, which MIC (Escherichia coli [1]) is on record?
A: 8 µg/mL (≈ 33.3 µM)

Q: And the MIC (Staphylococcus aureus [6])?
A: 4 µg/mL (≈ 16.6 µM)

Q: What about the MIC (Salmonella typhimurium [2]) of the same compound?
A: 128 µg/mL (≈ 533 µM)

Q: What about the Activity (Pseudomonas aeruginosa [3]) of the same compound?
A: inactive

Q: How did the MIC (Escherichia coli [1]) turn out when `Cc1ccc(/N=C/c2ccc3cc2OCC#C/C=C\C#CCO3)cc1` was run?
A: 256 µg/mL (≈ 782 µM)

Q: And the MIC (Salmonella typhimurium [2])?
A: 128 µg/mL (≈ 391 µM)

Q: What about the Activity (Pseudomonas aeruginosa [3]) of the same compound?
A: inactive

Q: And the Activity (Staphylococcus aureus [4])?
A: inactive

Q: `Brc1ccc(/N=C/c2ccc3cc2OCC#C/C=C\C#CCO3)cc1` was tested. Which MIC (Salmonella typhimurium [2]) did it give?
A: 128 µg/mL (≈ 326 µM)

Q: And the Activity (Pseudomonas aeruginosa [3])?
A: inactive

Q: And the Activity (Escherichia coli [8])?
A: inactive

Q: What about the Activity (Staphylococcus aureus [4]) of the same compound?
A: inactive

Q: `C#CCOc1ccc(C=O)c(OCC#C)c1` was tested. Which MIC (Pseudomonas aeruginosa [5]) did it give?
A: > 1000 µg/mL

Q: What about the MIC (Escherichia coli [1]) of the same compound?
A: > 1000 µg/mL

Q: And the MIC (Staphylococcus aureus [6])?
A: > 1000 µg/mL

Q: And the MIC (Salmonella typhimurium [2])?
A: > 1000 µg/mL

Q: `C1#CCOc2ccc(/C=N/c3ccccc3)c(c2)OCC#C/C=C\1` was tested. Which MIC (Pseudomonas aeruginosa [5]) did it give?
A: 128 µg/mL (≈ 408 µM)

Q: And the MIC (Escherichia coli [1])?
A: 128 µg/mL (≈ 408 µM)

Q: And the MIC (Staphylococcus aureus [6])?
A: 128 µg/mL (≈ 408 µM)

Q: What about the MIC (Salmonella typhimurium [2]) of the same compound?
A: 64 µg/mL (≈ 204 µM)

Q: For `C1#CCOc2cccc(c2)OCC#C/C=C\1`, which MIC (Escherichia coli [1]) is on record?
A: 4 µg/mL (≈ 19 µM)

Q: What about the MIC (Salmonella typhimurium [2]) of the same compound?
A: 8 µg/mL (≈ 38.1 µM)

Q: And the Activity (Pseudomonas aeruginosa [3])?
A: inactive

Q: And the Activity (Staphylococcus aureus [4])?
A: inactive

Q: Which results are given for `O=Cc1ccc2cc1OCC#C/C=C\C#CCO2`?
A: MIC (Escherichia coli [1]): 256 µg/mL (≈ 1070 µM); MIC (Staphylococcus aureus [6]): 8 µg/mL (≈ 33.6 µM); MIC (Salmonella typhimurium [2]): 128 µg/mL (≈ 537 µM); Activity (Pseudomonas aeruginosa [3]): inactive
